Where two headings read alike, the source gives them in different places.

The values that follow come from patent US9617276B2, “Compounds and methods for treating AIDS and HIV infections” (priority 2009, dated 2017).

In assay [1] the target is T1, HIV-1 protease (Human immunodeficiency virus type 1 group M subtype B, UniProt P04585).
T1 construct: A simple, continuous fluorometric assay for HIV protease
Description: HIV protease enzyme inhibition, fluorometric assay of Toth and Marshall. The class given is biochemical. Particulars: read-out: Ki. On the procedure: (§1) The inhibitory potencies of acyclic and cyclic inhibitors were measured by the assay protocol of Toth and Marshall (Toth, M. V.; Marshall, G. R. A simple, continuous fluorometric assay for HIV protease. Int. J. Pep. Protien Res. 1990, 36, 544-55).

Assay [2] deals with HIV-1. Description: antiviral assay (IC50). Particulars: read-out: IC50. The class given is cell-based. On the procedure: as §1
Setting [3] is: Human immunodeficiency virus 1, Table 1, acyclic compounds.
Setting [4] is: Human immunodeficiency virus 1, Table 2.
[5] abbreviates: Human immunodeficiency virus 1, Table 4.

Turning to `C=CCCCCOc1cc(OC)ccc1S(=O)(=O)N(CC(C)CC=C)C[C@@H](O)[C@H](Cc1ccccc1)NC(=O)O[C@H]1CO[C@H]2OCC[C@H]21` (single isomer, unassigned) [Compound 19c], the Ki (commonly a dissociation constant, usually derived from enzyme kinetics or from competition with a known ligand) in assay [1] (Table 4) is < 10 nM. Besides, the IC50 (as a rule, the concentration that gives 50% inhibition) in assay [2] (Table 4) was > 1000 nM.

Regarding `C=CCCCCOc1cc(OC)ccc1S(=O)(=O)N(CCCCC=C)CC(O)C(Cc1ccccc1)NC(=O)OC1COC2OCCC12` (stereo not shown) [Compound 13a], the Ki was < 100 nM in assay [1] (Table 1, acyclic compounds) and 16 nM in assay [1]. For the same molecule, in assay [2] (setting [3]), the IC50 is > 1000 nM.

For the molecule `C=CCCCCN(CC(O)C(Cc1ccccc1)NC(=O)OC1COC2OCCC12)S(=O)(=O)c1ccc(OC)cc1OCCCC=C` (stereo not shown) [Compound 13b], the Ki is < 100 nM in assay [1] (Table 1, acyclic compounds) and 11 nM in assay [1]. Besides, the IC50 in assay [2] (setting [3]) and in assay [2] (Human immunodeficiency virus 1) was > 1000 nM each time.

In the case of `C=CCCCCOc1cc(OC)ccc1S(=O)(=O)N(CC=C)CC(O)C(Cc1ccccc1)NC(=O)OC1COC2OCCC12` (stereo not shown) [Compound 13e], the Ki was < 10 nM in assay [1] (Table 1, acyclic compounds) and 1.7 nM in assay [1]. Besides, in assay [2] (setting [3]), the IC50 was < 100 nM.

Regarding `C=CCCCOc1cc(OC)ccc1S(=O)(=O)N(CC=C)CC(O)C(Cc1ccccc1)NC(=O)OC1COC2OCCC12` (stereo not shown) [Compound 13f], in assay [1] (Table 1, acyclic compounds), the Ki was < 1 nM. Further, the IC50 in assay [2] (setting [3]) is < 100 nM.

Turning to `COc1ccc2c(c1)OCCCCC=CCCCCN(CC(O)C(Cc1ccccc1)NC(=O)OC1COC3OCCC13)S2(=O)=O` (stereo not shown) [Compound 14a-E], in assay [1] (Table 3, E and Z isomers), the Ki is < 1 nM. Further, in assay [2] (Table 3, E and Z isomers), the IC50 is < 100 nM.

For `COc1ccc2c(c1)OCCCCC=CCCCCN(CC(O)C(Cc1ccccc1)NC(=O)OC1COC3OCCC13)S2(=O)=O` (stereo not shown) [Compound 14a-Z], in assay [1] (Table 3, E and Z isomers), the Ki is < 1 nM. Besides, in assay [2] (Table 3, E and Z isomers), the IC50 is > 1000 nM.

As for `COc1ccc2c(c1)OCCCCC=CCCCCN(CC(O)C(Cc1ccccc1)NC(=O)OC1COC3OCCC13)S2(=O)=O` (stereo not shown) [Compound 14a], the Ki in assay [1] (Table 2) was < 1 nM. For the same molecule, the IC50 in assay [2] (setting [4]) was < 100 nM.

With `COc1ccc2c(c1)OCCCC=CCCCCN(CC(O)C(Cc1ccccc1)NC(=O)OC1COC3OCCC13)S2(=O)=O` (stereo not shown) [Compound 14b-Z], the Ki in assay [1] (Table 3, E and Z isomers) was < 1 nM. For the same molecule, the IC50 in assay [2] (Human immunodeficiency virus 1, Table 3, E and Z isomers) is < 10 nM.

On to `COc1ccc2c(c1)OCCCCC=CCN(CC(O)C(Cc1ccccc1)NC(=O)OC1COC3OCCC13)S2(=O)=O` (stereo not shown) [Compound 14e], for which the Ki in assay [1] (Table 2) was < 1 nM. In addition, the IC50 in assay [2] (setting [4]) is < 100 nM.

Take `COc1ccc2c(c1)OCCCC=CCN(CC(O)C(Cc1ccccc1)NC(=O)OC1COC3OCCC13)S2(=O)=O` (stereo not shown) [Compound 14f]: the Ki in assay [1] (Table 2) was < 1 nM. The IC50 in assay [2] (setting [4]) was < 100 nM.

As for `COc1ccc2c(c1)OCCCCCCCCCCN(CC(O)C(Cc1ccccc1)NC(=O)OC1COC3OCCC13)S2(=O)=O` (stereo not shown) [Compound 15a], the Ki in assay [1] (Table 2) was < 1 nM. Also, the IC50 in assay [2] (setting [4]) is < 100 nM.

On to `COc1ccc2c(c1)OCCCCCCCCCN(CC(O)C(Cc1ccccc1)NC(=O)OC1COC3OCCC13)S2(=O)=O` (stereo not shown) [Compound 15b], for which the Ki in assay [1] (Table 2) was < 1 nM; in assay [1], < 0.7 nM. In addition, the IC50 in assay [2] (setting [4]) was < 100 nM; in assay [2] (Human immunodeficiency virus 1), < 49 nM.

Regarding `COc1ccc2c(c1)OCCCCCCCN(CC(O)C(Cc1ccccc1)NC(=O)OC1COC3OCCC13)S2(=O)=O` (stereo not shown) [Compound 15d], the Ki in assay [1] (Table 2) was < 1 nM. For the same molecule, the IC50 in assay [2] (setting [4]) is < 100 nM.

Consider `C=CCCCCOc1cc(OC)ccc1S(=O)(=O)N(C[C@@H](O)[C@H](Cc1ccccc1)NC(=O)O[C@H]1CO[C@H]2OCC[C@H]21)CC(C)(C)CC=C` [Compound 19a, (3R,3aS,6aR)-Hexahydrofuro[2,3-b]furan-3-yl (2S,3R)-4-(N-(2,2-dimethylpent-4-enyl)-2-(hex-5-enyloxy)-4-methoxyphenylsulfonamido)-3-hydroxy-1-phenylbutan-2-ylcarbamate], for which the Ki in assay [1] (Table 4) was < 100 nM. The IC50 in assay [2] (setting [5]) was > 1000 nM.

Turning to `COc1ccc2c(c1)OCCCCC=CCC(C)(C)CN(CC(O)C(Cc1ccccc1)NC(=O)OC1COC3OCCC13)S2(=O)=O` (stereo not shown) [Compound 20a], the Ki in assay [1] (Table 4) is < 100 nM. Further, the IC50 in assay [2] (setting [5]) is > 1000 nM.

Take `COc1ccc2c(c1)OCCCCC=CCC(C)CN(CC(O)C(Cc1ccccc1)NC(=O)OC1COC3OCCC13)S2(=O)=O` (stereo not shown) [Compound 20b]: the Ki in assay [1] (Table 4) is < 10 nM. The IC50 in assay [2] (Table 4) is < 100 nM.

For the molecule `COc1ccc2c(c1)OCCCCC=CCC(C)CN(CC(O)C(Cc1ccccc1)NC(=O)OC1COC3OCCC13)S2(=O)=O` (stereo not shown) [Compound 20c], the values for the Ki in assay [1] (Table 4) and in assay [1] were < 1 nM and 0.31 nM, respectively. The IC50 was 9 nM in assay [2] (Human immunodeficiency virus 1) and < 10 nM in assay [2] (Table 4).

For `COc1ccc2c(c1)OCCCCC=CCC(C)(C)CN(CC(O)C(Cc1ccccc1)NC(=O)OC1COC3OCCC13)S2(=O)=O` (stereo not shown) [Compound 21a], the Ki in assay [1] (Table 4) is < 10 nM. For the same molecule, in assay [2] (Table 4), the IC50 is > 1000 nM.

For `COc1ccc2c(c1)OCCCCC=CCC(C)CN(CC(O)C(Cc1ccccc1)NC(=O)OC1COC3OCCC13)S2(=O)=O` (stereo not shown) [Compound 21b], the Ki in assay [1] (Table 4) is < 10 nM; in assay [1], 2.8 nM. The IC50 in assay [2] (Table 4) was < 10 nM; in assay [2] it was 6.3 nM.

For `COc1ccc2c(c1)OCCCCC=CCC(C)CN(CC(O)C(Cc1ccccc1)NC(=O)OC1COC3OCCC13)S2(=O)=O` (stereo not shown) [Compound 21c], the Ki in assay [1] (Table 4) was < 1 nM. In addition, in assay [2] (Table 4), the IC50 is < 100 nM.

As to `COc1ccc2c(c1)OCCCCCCCC(C)(C)CN(CC(O)C(Cc1ccccc1)NC(=O)OC1COC3OCCC13)S2(=O)=O` (stereo not shown) [Compound 22a], in assay [1] (Table 4), the Ki is < 10 nM. Also, the IC50 in assay [2] (setting [5]) was > 1000 nM.

As to `COc1ccc2c(c1)OCCCCCCCC(C)CN(CC(O)C(Cc1ccccc1)NC(=O)OC1COC3OCCC13)S2(=O)=O` (stereo not shown) [Compound 22b], the Ki in assay [1] (Table 4) was < 1 nM. Further, the IC50 in assay [2] (Table 4) is < 1000 nM.

Turning to `COc1ccc2c(c1)OCCCCCCCC(C)CN(CC(O)C(Cc1ccccc1)NC(=O)OC1COC3OCCC13)S2(=O)=O` (stereo not shown) [Compound 22c], the Ki in assay [1] (Table 4) was < 1 nM. Besides, the IC50 in assay [2] (Table 4) was < 100 nM.
